# Source: article PMC9098913, “In vitro reconstitution of Escherichia coli divisome activation” (Nature Communications, 2022)
# Where two headings read alike, the source gives them in different places.
# Legend:
# [1] = Membrane off-binding rate (koff) of FtsA from FRAP
# Source text: We could also use the data from these bleaching experiments to quantify the membrane-binding kinetics and diffusion of membrane-bound proteins by analysing the change of the fluorescence profile during recovery.
# Equimolar concentrations of Cy3- and Cy5-labelled FtsA, supplemented with 20% unlabelled FtsA were used to study FRET and FRAP. Five pre-bleach frames were acquired, followed by acceptor photobleaching of a rectangular ROI with 40% 641 nm laser power and a dwell size of 1 µs/pixel, 75% overlapping lines. The recovery of the signal or the increase in donor intensity were measured with either two frames or one frame per second.
# Bleaching the acceptor dye leads to an increase in the donor intensity, which can be used to quantify the Foerster Resonance energy transfer (FRET)[48]. FRET efficiency was quantified with E%=Ipost/Ipost+Ipre⋅100 , where Ipost is the intensity of the […] and Ipre is the […]. […] To extract the contribution of both processes, we adjusted a routine recently published by Gerganova et al.[33]. In short, the code provides the contribution of both modes of recovery by analysing the shape of the fluorescence recovery profile. […] Contribution of diffusion leads to a change of the slope of the outer borders of the bleached region (S4h right). Thus, by measuring the change of the slope of the border recovery, diffusion and simple on/off binding can be distinguished. We developed “FRAPdiff”, a graphical user interface, which uses the original fit routine by David Rutkowski. It can be used directly on.tiff movies with annotated bleach regions as ImageJ ROIs. In addition, we added optional bleach correction, user selectable projection axis (x or y), and optional mirroring of the recovery profiles, if bleaching was not symmetric. The original fit routine for estimating the recovery and diffusion dynamics can be found at https://github.com/davidmrutkowski/1DReflectingDiffusion. FRAPdiff is available at 10.5281/zenodo.6400639[49] under the GPLv3 open-source license.
# FtsZ [2] = settings: His-tagged FtsA
# Experimental: (§1) Co-treadmilling of FtsA with FtsZ relies on the dynamic exchange of FtsA on the membrane. […] To investigate the respective contributions of membrane binding kinetics and FtsA self-interaction on the colocalization dynamics with FtsZ, we wanted to create variants of the two FtsA proteins that are permanently attached to the membrane. […] Accordingly, in these experiments the proteins only differ in their tendency to form oligomers.
# (§2) To study colocalization of His-tagged variants of FtsA, 0.5–1 µM of Cy5 labelled His-tagged FtsAs were added to the chamber, incubated for 20 min and washed 6x with reaction buffer. […] To control the density of membrane-bound FtsA, SUVs without and with Tris-NTA lipids were mixed to obtain the respective Tris-NTA concentrations. To perform FRET/FRAP experiments, equimolar concentrations of Cy3 and Cy5 labelled His-tagged FtsAs (total 0.5–1 µM) or His-SUMO-Cys were added to a chamber and treated as above. […] FRAP experiments were performed as described before.
# Time-lapse videos were first intensity-corrected and contrast-enhanced to avoid bleaching effects and simplify subsequent analysis. To remove contributions of X–Y drift, the videos were processed with the Linear Stack Alignment with SIFT plugin. Proper alignment was checked with the 3TP align plugin (J. A. Parker; Beth Israel Deaconess Medical Center, Boston). Subsequently, regions of interest (ROIs) in the center of the stacks were chosen for colocalization analysis. The Pearson’s correlation coefficient (PCC) was quantified with the Image CorrelationJ 1o plugin. To extract information about the relative ratio of FtsZ/FtsA molecules (slope of linear regression), we also used the Image CorrelationJ 1o plugin. As an output, the plugin provides a scatterplot of FtsZ vs FtsA intensities, to which we fitted a linear slope y=k⋅x+d , where k is the slope and d the offset. The slope was used as an estimate for the ratio of FtsA molecules below FtsZ filaments.
# FtsZ [3] = settings: His-tagged FtsA; remark: listed apart in the source
# Experimental: as §1, §2
# Treadmilling dynamics, were quantified using an automated image analysis protocol previously developed by our group. To visualize colocalization of the co-treadmilling FtsZ & FtsA filaments, we used dual-colour videos obtained at an acquisition rate of one frame per 2 s. The two channels were aligned using FIJI’s 3TP align plugin. Both channels were then subjected to the image subtraction protocol and colocalization was measured as described above.
# [4] = 0.60% Tris NTA, Exp. 1 (statistical analysis)
# [5] = 0.60% Tris NTA, Exp. 2 (statistical analysis)
# [6] = 0.80% Tris NTA, Exp. 1 (statistical analysis)
# [7] = 0.80% Tris NTA, Exp. 3 (statistical analysis)
# [8] = 1.00% Tris NTA, Exp. 1 (statistical analysis)
# [9] = 1.00% Tris NTA, Exp. 2 (statistical analysis)
# [10] = 1.00% Tris NTA, Exp. 3 (statistical analysis)
# [11] = 2.00% Tris NTA, Exp. 1 (statistical analysis)
# [12] = 2.00% Tris NTA, Exp. 2 (statistical analysis)
# [13] = 2.00% Tris NTA, Exp. 3 (statistical analysis)
# [14] = […] Tris NTA, Exp. 1 (statistical analysis)
# [15] = […] Tris NTA, Exp. 2 (statistical analysis)
# [16] = […] Tris NTA, Exp. 3 (statistical analysis)
substance,measurement,setting,value
"FtsA WT: wild-type E. coli actin-homologue FtsA, membrane anchor of FtsZ","Off binding rate, mean",[1]; 0.1 µM FtsA + FtsN&Z,0.018 s
same,"Off binding rate, mean",[1]; 0.1 µM FtsA + FtsN,0.032 s
same,"Off binding rate, mean",[1]; 0.1 µM FtsA + FtsZ,0.0428 s
same,"Off binding rate, mean",[1]; 0.1 µM FtsA alone,0.0544 s
same,"Off binding rate, mean",[1]; 0.2 µM FtsA + FtsN&Z,0.0128 s
same,"Off binding rate, mean",[1]; 0.2 µM FtsA + FtsN,0.026 s
same,"Off binding rate, mean",[1]; 0.2 µM FtsA + FtsZ,0.0502 s
same,"Off binding rate, mean",[1]; 0.2 µM FtsA alone,0.0443 s
same,"Off binding rate, mean",[1]; 0.4 µM FtsA + FtsN&Z,0.0174 s
same,"Off binding rate, mean",[1]; 0.4 µM FtsA + FtsN,0.0196 s
same,"Off binding rate, mean",[1]; 0.4 µM FtsA + FtsZ,0.0502 s
same,"Off binding rate, mean",[1]; 0.4 µM FtsA alone,0.0375 s
same,membrane exchange (off-rate),"[1]; 0.4 µM FtsA, p-value 6.73 × 10^−6",0.04 ± 0.01 s⁻¹
same,"Off binding rate, mean",[1]; 0.8 µM FtsA + FtsN&Z,0.0278 s
same,"Off binding rate, mean",[1]; 0.8 µM FtsA + FtsN,0.0277 s
same,"Off binding rate, mean",[1]; 0.8 µM FtsA + FtsZ,0.0562 s
same,"Off binding rate, mean",[1]; 0.8 µM FtsA alone,0.0396 s
same,Off binding rate,"[1]; Fig. S3i/S3j, 0.10 µM FtsA, replicate 1",0.0471 s⁻¹
same,Off binding rate,"[1]; Fig. S3i/S3j, 0.10 µM FtsA, replicate 2",0.024 s⁻¹
same,Off binding rate,"[1]; Fig. S3i/S3j, 0.10 µM FtsA, replicate 3",0.0306 s⁻¹
same,Off binding rate,"[1]; Fig. S3i/S3j, 0.10 µM FtsA, replicate 4",0.0374 s⁻¹
same,Off binding rate,"[1]; Fig. S3i/S3j, 0.10 µM FtsA, summary value",0.0544 s⁻¹
same,Off binding rate,"[1]; Fig. S3i/S3j, 0.20 µM FtsA, summary value",0.0443 s⁻¹
same,Off binding rate,"[1]; Fig. S3i/S3j, 0.40 µM FtsA, summary value",0.0375 s⁻¹
same,Off binding rate,"[1]; Fig. S3i/S3j, 0.80 µM FtsA, summary value",0.0396 s⁻¹
same,Off binding rate,"[1]; Fig. S3m, AMP PNP, 0.10 µM FtsA, replicate 1",0.0505 s⁻¹
same,Off binding rate,"[1]; Fig. S3m, AMP PNP, 0.10 µM FtsA, replicate 2",0.0348 s⁻¹
same,Off binding rate,"[1]; Fig. S3m, AMP PNP, 0.20 µM FtsA, replicate 1",0.0493 s⁻¹
same,Off binding rate,"[1]; Fig. S3m, AMP PNP, 0.20 µM FtsA, replicate 2",0.0628 s⁻¹
same,Off binding rate,"[1]; Fig. S3m, AMPPNP, 0.10 µM FtsA, summary value",0.04 s⁻¹
same,Off binding rate,"[1]; Fig. S3m, AMPPNP, 0.20 µM FtsA, summary value",0.06 s⁻¹
same,Off binding rate,"[1]; Fig. S3m, AMPPNP, 0.40 µM FtsA, summary value",0.08 s⁻¹
same,Off binding rate,"[1]; Fig. S3m, AMPPNP, 0.80 µM FtsA, summary value",0.06 s⁻¹
same,Off binding rate,"[1]; Fig. S3m, ATP, 0.10 µM FtsA, summary value",0.05 s⁻¹
same,Off binding rate,"[1]; Fig. S3m, ATP, 0.20 µM FtsA, summary value",0.04 s⁻¹
same,Off binding rate,"[1]; Fig. S3m, ATP, 0.40 µM FtsA, summary value",0.04 s⁻¹
same,Off binding rate,"[1]; Fig. S3m, ATP, 0.80 µM FtsA, summary value",0.04 s⁻¹
same,Off binding rate,"[1]; Fig. S3m, ATPgS, 0.10 µM FtsA, summary value",0.0254 s⁻¹
same,Off binding rate,"[1]; Fig. S3m, ATPgS, 0.20 µM FtsA, summary value",0.0233 s⁻¹
same,Off binding rate,"[1]; Fig. S3m, ATPgS, 0.40 µM FtsA, summary value",0.0157 s⁻¹
same,Off binding rate,"[1]; Fig. S3m, ATPgS, 0.80 µM FtsA, summary value",0.0252 s⁻¹
same,membrane off-rate,[1]; in the presence of FtsZ,~0.05 s⁻¹
same,time bound relative to FtsZ monomers (times longer),[1]; in the presence of FtsZ,2–4 times
same,PCC,FtsZ [2]; [4],0.58
same,PCC,FtsZ [2]; [5],0.73
same,"PCC, Mean","FtsZ [2]; 0.60% Tris NTA, n = 2 (WT), 3 (R286W), sd 0.07, 0.08, p-value 0.39",0.65
same,PCC,FtsZ [2]; [6],0.66
same,PCC,"FtsZ [2]; 0.80% Tris NTA, Exp. 2 (statistical analysis)",0.70
same,PCC,FtsZ [2]; [7],0.68
same,"PCC, Mean","FtsZ [2]; 0.80% Tris NTA, n = 3, 3, sd 0.0141 (WT), 0.0648 (R286W), p-value 0.61",0.68
same,PCC,FtsZ [2]; [8],0.53
same,PCC,FtsZ [2]; [9],0.60
same,PCC,FtsZ [2]; [10],0.73
same,PCC,"FtsZ [2]; 1.00% Tris NTA, Exp. 4 (statistical analysis)",0.53
same,"PCC, Mean","FtsZ [2]; 1.00% Tris NTA, n = 4 (WT), 3 (R286W), sd 0.08, 0.0316, p-value 6.25E-02",0.60
same,PCC,FtsZ [2]; [11],0.12
same,PCC,FtsZ [2]; [12],0.14
same,PCC,FtsZ [2]; [13],0.16
same,"PCC, Mean","FtsZ [2]; 2.00% Tris NTA, n = 3, 3, sd 0.0143 (WT), 0.04 (R286W), p-value 1.59E-04",0.14
same,PCC,FtsZ [2]; [14],0.16
same,PCC,FtsZ [2]; [15],0.0429
same,PCC,FtsZ [2]; [16],0.18
same,"PCC, Mean","FtsZ [2]; […] Tris NTA, n = 3, 3, sd 0.06 (WT), 0.02 (R286W), p-value 3.86E-04",0.13
same,Differential PCC,FtsZ [3]; [4],0.51
same,Differential PCC,FtsZ [3]; [5],0.47
same,"Differential PCC, Mean","FtsZ [3]; 0.60% Tris NTA, n = 2 (WT), 3 (R286W), sd 0.02, 0.057, p-value 0.67",0.49
same,Differential PCC,FtsZ [3]; [6],0.49
same,Differential PCC,FtsZ [3]; [7],0.47
same,"Differential PCC, Mean","FtsZ [3]; 0.80% Tris NTA, n = 3, 3, sd 0.05 (WT), 0.0749 (R286W), p-value 0.13",0.45
same,Differential PCC,FtsZ [3]; [8],0.49
same,Differential PCC,FtsZ [3]; [9],0.28
same,Differential PCC,FtsZ [3]; [10],0.23
same,"Differential PCC, Mean","FtsZ [3]; 1.00% Tris NTA, n = 3, 3, sd 0.12 (WT), 0.0377 (R286W), p-value 5.89E-02",0.33
same,Differential PCC,FtsZ [3]; [11],0.06
same,Differential PCC,FtsZ [3]; [12],0.14
same,Differential PCC,FtsZ [3]; [13],0.0238
same,"Differential PCC, Mean","FtsZ [3]; 2.00% Tris NTA, n = 3, 3, sd 0.0469 (WT), 0.04 (R286W), p-value 2.27E-03",0.0739
same,Differential PCC,FtsZ [3]; [14],0.05
same,Differential PCC,FtsZ [3]; [15],0.035
same,Differential PCC,FtsZ [3]; [16],0.12
same,"Differential PCC, Mean","FtsZ [3]; […] Tris NTA, n = 3, 3, sd 0.0371 (WT), 0.02 (R286W), p-value 5.70E-04",0.07
